Key:
[1] = design: species or system patients; settings: human, in vivo
Procedure: A clinical study was performed to test the hypothesis that sensitivity (allergy) to radio contrast media could be predicted by the results of the histamine release test described herein. Histamine release from a blood sample from patients who would later be tested with a radio contrast media was measured. The results were later compared with the occurrence of an allergic reaction to the administration of the radio contrast media.

basophils = format: cell-based, patients
Procedure: In the first step a histamine-protein conjugate is adsorbed to 94 polystyrene pegs simultaneously. This is accomplished by submerging the pegs into wells of a 96 well microtiter plate (referred to as the adsorption plate) that contain a solution of a histamine-BSA conjugate. Two microtiter wells contain only BSA and are used as negative controls. Following a one hour incubation period at room temperature, the pegs are removed and washed to remove non-adsorbed conjugate.
A second 96 well microtiter plate (referred to as the release plate) containing various dilutions of RCM or histamine is also prepared. […]
The relative concentration of the monoclonal antibody-horseradish peroxidase conjugate bound to the histamine-BSA conjugate on the polystyrene pegs is now estimated by immersing the pegs in a third microtiter plate (referred to as the chromogen plate) containing a chromogenic substrate for horseradish peroxidase, 2, 2′-azino-di-(3-ethyl-benzothiazoline)-6-sulfonic acid (ABTS®). […] Quantitative assessment of histamine release can be made if a Microtiter ELISA Reader is available. […]
The radio contrast media (RCM) to be tested as the allergen was diluted into 8 to 9 serial dilutions using Tris ACM or distilled water as diluent. […] The release plate was then ready for use. […]

patients with an allergic reaction to the injection of the radio contrast media [1]: one
degree of histamine release (basophils): highest degree of histamine release
histamine release (basophils): significantly more histamine release
Structure (SMILES): CC(=O)Nc1c(I)c(NC(C)=O)c(I)c(C(=O)O)c1I [Hypaque]
